In US20200339582A1, “Atypical Carbapenem Antibiotics with Improved Activity Against Carbapenemase-Producing Acinetobacter baumannii” (priority 2019, published 2020) one finds MIC data, which are given here for eight molecules.

Each structure is given as a SMILES string. ≈ marks a conversion by molar mass, not a printed value. Read-outs that look alike come from different tables or passages of the source.

Common to all, as to assay type: cell-based
Assay [1] relates to resistant Acinetobacter baumannii producing OXA-23. The experiment in a line: MIC against Acinetobacter baumannii producing OXA-23.
The test system of assay [2] is resistant Acinetobacter baumannii producing OXA-48. The experiment in a line: MIC against Acinetobacter baumannii producing OXA-48.
Assay [3] deals with Acinetobacter baumannii (carbapenemase produced: None). The experiment in a line: MIC against Acinetobacter baumannii, no carbapenemase produced.
Assay [4] deals with resistant Acinetobacter baumannii producing KPC-6. The experiment in a line: MIC against Acinetobacter baumannii producing KPC-6.
The test system of assay [5] is resistant Acinetobacter baumannii producing VIM-2. The experiment in a line: MIC against Acinetobacter baumannii producing VIM-2.
Assay [6] deals with resistant Acinetobacter baumannii producing NDM-1. The experiment in a line: MIC against Acinetobacter baumannii producing NDM-1.
Where [7] appears, read: Table 1, carbapenemase produced: OXA-23.
Setting [8] is: Table 1, carbapenemase produced: OXA-48.
[9] abbreviates: Table 1, carbapenemase produced: None.
The mark [10] stands for this setting: Acinetobacter baumannii, Table 1, carbapenemase produced: OXA-23, read-out: MIC.
The mark [11] stands for this setting: Table 2, enzyme produced: OXA-23.
The mark [12] stands for this setting: Acinetobacter baumannii, Table 2, enzyme produced: VIM-2, read-out: MIC.
The mark [13] stands for this setting: Acinetobacter baumannii, Table 1, carbapenemase produced: OXA-48, read-out: MIC.
The mark [14] stands for this setting: Acinetobacter baumannii, Table 2, enzyme produced: OXA-48, read-out: MIC.
Where [15] appears, read: Acinetobacter baumannii, Table 1, carbapenemase produced: None, read-out: MIC.
Setting [16] is: Acinetobacter baumannii, Table 2, enzyme produced: None, read-out: MIC.
Where [17] appears, read: Acinetobacter baumannii, Table 2, enzyme produced: NDM-1, read-out: MIC.
[18] abbreviates: Table 2, enzyme produced: OXA-48.

As a reminder, the MIC is the least concentration at which growth counts as inhibited. Consider `CN(C)C(=O)[C@@H]1C[C@H](SC2=C(C(=O)O)N3C(=O)[C@H](CO)[C@H]3C2)CN1` [Compound 1], for which the MIC is 8 mg/L (≈ 22.5 µM) in assay [1] (setting [7]), 16 µg/mL (≈ 45 µM) in assay [2] (setting [8]) and 0.25 µg/mL (≈ 0.703 µM) in assay [3] (setting [9]).

With `C[C@@H](O)[C@H]1C(=O)N2C(C(=O)O)=C(S[C@@H]3CN[C@H](CNS(N)(=O)=O)C3)[C@H](C)[C@H]12` [Doripenem, doripenem], the minimal inhibitory concentration (MIC) in assay [1] (setting [10]) amounted to 32 mg/L (≈ 76.1 µM); in assay [1] (setting [11]), 32 mg/L (≈ 76.1 µM); in assay [4] (Acinetobacter baumannii) it was 128 µg/mL (≈ 304 µM); in assay [5] (setting [12]), 32 µg/mL (≈ 76.1 µM); in assay [2] (setting [13]), 16 µg/mL (≈ 38 µM); in assay [2] (setting [14]), 16 µg/mL (≈ 38 µM). In addition, the results for the minimum inhibitory concentration (MIC) in assay [3] (setting [15]), in assay [3] (setting [16]) and in assay [6] (setting [17]) were 0.25 µg/mL (≈ 0.595 µM), 0.25 µg/mL (≈ 0.595 µM) and 64 µg/mL (≈ 152 µM), respectively.

On to `C[C@@H](O)[C@H]1C(=O)N2C(C(=O)O)=C(SCCN=CN)C[C@H]12` [Imipenem, imipenem], for which the MIC came out at 32 mg/L (≈ 107 µM) in assay [1] (setting [10]); 32 mg/L (≈ 107 µM) in assay [1] (setting [11]); 32 µg/mL (≈ 107 µM) in assay [5] (setting [12]); 16 µg/mL (≈ 53.4 µM) in assay [2] (setting [13]); 16 µg/mL (≈ 53.4 µM) in assay [2] (setting [14]); 0.25 µg/mL (≈ 0.835 µM) in assay [3] (setting [15]). For the same molecule, the MIC is 0.25 µg/mL (≈ 0.835 µM) in assay [3] (setting [16]) and 16 µg/mL (≈ 53.4 µM) in assay [6] (setting [17]).

For `C[C@@H](O)[C@H]1C(=O)N2C(C(=O)O)=C(S[C@@H]3CN[C@H](C(=O)N(C)C)C3)[C@H](C)[C@H]12` [Meropenem, meropenem], the MIC came out at 64 mg/L (≈ 167 µM) in assay [1] (setting [10]); 64 mg/L (≈ 167 µM) in assay [1] (setting [11]); 256 µg/mL (≈ 668 µM) in assay [4] (Acinetobacter baumannii); 64 µg/mL (≈ 167 µM) in assay [5] (setting [12]); 8 µg/mL (≈ 20.9 µM) in assay [2] (setting [13]); 16 µg/mL (≈ 41.7 µM) in assay [2] (setting [14]). The values for the MIC in assay [3] (setting [15]), in assay [3] (setting [16]) and in assay [6] (Acinetobacter baumannii) were 0.5 µg/mL (≈ 1.3 µM), 0.5 µg/mL (≈ 1.3 µM) and 128 µg/mL (≈ 334 µM), respectively.

On to `CC1(C)S[C@@H]2[C@H](NC(=O)[C@H](N)c3ccccc3)C(=O)N2[C@H]1C(=O)O` [AMP, ampicillin], for which the MIC in assay [1] (Acinetobacter baumannii, Table 2, enzyme produced: OXA-23, read-out: MIC) was 8190 mg/L (≈ 23400 µM); in assay [4] (Acinetobacter baumannii) it was 4100 µg/mL (≈ 11700 µM); in assay [5] (setting [12]), over 8190 µg/mL; in assay [2] (Acinetobacter baumannii), 1020 µg/mL (≈ 2930 µM); in assay [3] (setting [16]) it was 32 µg/mL (≈ 91.6 µM); in assay [6] (Acinetobacter baumannii), 1020 µg/mL (≈ 2930 µM).

For `CCC12CC(S[C@@H]3CN[C@H](C(=O)N(C)C)C3)=C(C(=O)O)N1C(=O)[C@@H]2[C@@H](C)O` (stereo partly drawn) [Compound 2b, (6S)-6-[(R)-1-Hydroxyethyl]-3-[(3S,5S)-5-(dimethylamino)carbonyl-3-pyrrolidinylthio]-5-ethyl-7-oxoazabicyclo[3.2.0]hept-2-ene-2-carboxylate], the MIC in assay [1] (setting [7]) turned out to be 4 mg/L (≈ 10.1 µM); in assay [1] (setting [11]), 4 mg/L (≈ 10.1 µM); in assay [4] (Table 2, enzyme produced: KPC-6), 4 µg/mL (≈ 10.1 µM); in assay [5] (Table 2, enzyme produced: VIM-2), 4 µg/mL (≈ 10.1 µM); in assay [2] (setting [8]), 4 µg/mL (≈ 10.1 µM); in assay [2] (setting [18]) it was 4 µg/mL (≈ 10.1 µM). The MIC came out at 2 µg/mL (≈ 5.03 µM) in assay [3] (setting [9]); 2 µg/mL (≈ 5.03 µM) in assay [3] (Table 2, enzyme produced: None); 2 µg/mL (≈ 5.03 µM) in assay [6] (Table 2, enzyme produced: NDM-1).

Take `C[C@@H](O)[C@H]1C(=O)N2C(C(=O)O)=C(S[C@@H]3CN[C@H](C(=O)N(C)C)C3)CC12C` (stereo partly drawn) [Compound 2a, (6S)-6-[(R)-1-Hydroxyethyl]-3-[(3S,5S)-5-(dimethylamino)carbonyl-3-pyrrolidinylthio]-5-methyl-7-oxoazabicyclo[3.2.0]hept-2-ene-2-carboxylate]: the MIC in assay [1] (setting [7]) was found to be 4 mg/L (≈ 10.4 µM); in assay [2] (setting [8]) it was 1 µg/mL (≈ 2.61 µM); in assay [3] (setting [9]) it was 0.5 µg/mL (≈ 1.3 µM).

As to `C[C@@H](O)[C@H]1C(=O)N2C(C(=O)O)=C(S[C@@H]3CN[C@H](C(=O)Nc4cccc(C(=O)O)c4)C3)[C@H](C)[C@H]12` [Ertapenem, ertapenem], the MIC was 256 mg/L (≈ 538 µM) in assay [1] (setting [10]); 256 mg/L (≈ 538 µM) in assay [1] (setting [11]); over 512 µg/mL in assay [4] (Acinetobacter baumannii); over 512 µg/mL in assay [5] (Acinetobacter baumannii); 128 µg/mL (≈ 269 µM) in assay [2] (Acinetobacter baumannii); 128 µg/mL (≈ 269 µM) in assay [2] (setting [18]). For the same molecule, the MIC worked out at 2 µg/mL (≈ 4.21 µM) in assay [3] (setting [15]), 4 µg/mL (≈ 8.41 µM) in assay [3] (setting [16]) and 256 µg/mL (≈ 538 µM) in assay [6] (setting [17]).
